# Source: patent US8471004B2, “Bicyclic compounds” (Hoffman-La Roche Inc., priority 2009, dated 2013)
# Target: T1, human chemokine receptor 2 isoform B (Homo sapiens, UniProt P41597)
# T1 construct: host or cells: CHOK1-CCR2B-A5 (CHO-K1)
# T1 sequence (P41597 1-360 isoform P41597-2): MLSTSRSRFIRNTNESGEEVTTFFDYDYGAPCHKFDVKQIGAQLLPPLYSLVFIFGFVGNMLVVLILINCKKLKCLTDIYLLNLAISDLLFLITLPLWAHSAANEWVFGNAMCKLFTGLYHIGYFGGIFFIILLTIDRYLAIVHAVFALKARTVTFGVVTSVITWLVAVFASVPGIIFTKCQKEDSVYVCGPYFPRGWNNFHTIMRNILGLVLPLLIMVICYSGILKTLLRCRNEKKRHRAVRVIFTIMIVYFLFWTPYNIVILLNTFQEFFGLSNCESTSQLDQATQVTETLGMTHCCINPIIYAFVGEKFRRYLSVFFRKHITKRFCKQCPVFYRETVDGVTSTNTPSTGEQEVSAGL
# Test: Calcium mobilization assay (CHOK1-CCR2B-A5 cells, FLIPR, MCP-1 stimulated)
# Format: cell-based
# Conditions: Ca mobilisation assay for CCR2, antagonist activity, 50% inhibition of specific calcium increases after 20 nM MCP-1
# Experimental: CHOK1-CCR2B-A5 cells (from Euroscreen) stably overexpressing the human chemokine receptor 2 isoform B were cultured in Nutrient Hams F12 medium supplemented with 5% FBS, 100 U/ml penicillin, 100 μg/ml streptomycin, 400 μg/ml G418 and 5 μg/ml puromycin.
# For the assay cells were grown overnight in 384-well black clear flat bottom polystyrene plates (Costar) at 37° C. at 5% CO2. After washing with DMEM, 20 mM Hepes, 2.5 mM probenecid, 0.1% BSA (DMEM assay buffer) cells were loaded with 4 μM Fluo-4 in the same DMEM assay buffer for 2 hours at 30° C. Excess dye was removed and cells were washed with DMEM assay buffer. 384-well compound plates were prepared with DMEM assay buffer/0.5% DMSO with or without various concentrations of test compounds. Usually compounds were tested for agonist and antagonist activity.
# Test compounds were added to the assay plate and agonist activity was monitored as fluorescence for 80 seconds with a FLIPR (488 nm excitation; 510-570 nm emission; Molecular Devices). After 20-30 min. of incubation at 30° C., 20 nM MCP-1 (R&D; Roche) was added and fluorescence was monitored again for 80 seconds. Increases in intracellular calcium are reported as maximum fluorescence after agonist exposure minus basal fluorescence before exposure. Antagonist activity is indicated as inhibitor concentration required for 50% inhibition of specific calcium increases.
row,IC50 [nM],SMILES
1,14.4,"C[C@H]1C(=O)N2C(CN1C(=O)Nc1ccc(Cl)c(Cl)c1)OC[C@@H]2CCC(=O)N1CCC2(CC2)[C@H](O)C1 (stereo partly drawn) [Example 23, (3S,6S)-3-[3-((S)-4-Hydroxy-6-aza-spiro[2.5]oct-6-yl)-3-oxo-propyl]-6-methyl-5-oxo-hexahydro-oxazolo[3,2-a]pyrazine-7-carboxylic acid (3,4-dichloro-phenyl)-amide]"
2,5.5,"C[C@H]1C(=O)N2[C@@H](CCC(=O)N3CCC4(CC4)[C@H](O)C3)CO[C@@H]2CN1C(=O)Nc1ccc(C(F)(F)F)c(Cl)c1 [Example 24, (3S,6S,8aR)-3-[3-((S)-4-Hydroxy-6-aza-spiro[2.5]oct-6-yl)-3-oxo-propyl]-6-methyl-5-oxo-hexahydro-oxazolo[3,2-a]pyrazine-7-carboxylic acid (3-chloro-4-trifluoromethyl-phenyl)-amide]"
3,20,"C[C@H]1C(=O)N2[C@@H](CCC(=O)N3CCC4(CC4)[C@H](O)C3)CO[C@H]2CN1C(=O)Nc1ccc(C(F)(F)F)c(Cl)c1 [Example 25, (3S,6S,8aS)-3-[3-((S)-4-Hydroxy-6-aza-spiro[2.5]oct-6-yl)-3-oxo-propyl]-6-methyl-5-oxo-hexahydro-oxazolo[3,2-a]pyrazine-7-carboxylic acid (3-chloro-4-trifluoromethyl-phenyl)-amide]"
4,61.8,"C[C@H]1C(=O)N2[C@@H](CCC(=O)N3CCC4(CC4)[C@H](O)C3)CO[C@@H]2CN1C(=O)/C=C/c1ccc(F)c(Cl)c1 [Example 26, (3S,6S,8aR)-7-[(E)-3-(3-Chloro-4-fluoro-phenyl)-acryloyl]-3-[3-((S)-4-hydroxy-6-aza-spiro[2.5]oct-6-yl)-3-oxo-propyl]-6-methyl-hexahydro-oxazolo[3,2-a]pyrazin-5-one]"
5,49.4,"C[C@H]1C(=O)N2[C@@H](CCC(=O)N3CCC4(CC4)[C@H](O)C3)CO[C@H]2CN1C(=O)/C=C/c1ccc(F)c(Cl)c1 [Example 27, (3S,6S,8aS)-7-[(E)-3-(3-Chloro-4-fluoro-phenyl)-acryloyl]-3-[3-((S)-4-hydroxy-6-aza-spiro[2.5]oct-6-yl)-3-oxo-propyl]-6-methyl-hexahydro-oxazolo[3,2-a]pyrazin-5-one]"
6,3.7,"C[C@H]1C(=O)N2C(CN1C(=O)Nc1ccc(Cl)c(Cl)c1)OCCC[C@H]2CN1CCC2(CC2)[C@H](O)C1 (stereo partly drawn) [Example 28, (3S,5S)-5-((S)-4-Hydroxy-6-aza-spiro[2.5]oct-6-ylmethyl)-3-methyl-4-oxo-octahydro-9-oxa-2,4a-diaza-benzocycloheptene-2-carboxylic acid (3,4-dichloro-phenyl)-amide]"
7,774,"C[C@H]1C(=O)N2C(CN1C(=O)Nc1ccc(Cl)c(Cl)c1)OC[C@@H]2CC(=O)N1CCC2(CC2)[C@H](O)C1 (stereo partly drawn) [Example 29, (3S,6S)-3-[2-((S)-4-Hydroxy-6-aza-spiro[2.5]oct-6-yl)-2-oxo-ethyl]-6-methyl-5-oxo-hexahydro-oxazolo[3,2-a]pyrazine-7-carboxylic acid (3,4-dichloro-phenyl)-amide]"
8,1.5,"C[C@H]1C(=O)N2C(CN1C(=O)Nc1ccc(Cl)c(Cl)c1)OCC[C@H]2CN1CCC2(CC2)[C@H](O)C1 (stereo partly drawn) [Example 30, (4S,7S)-4-((S)-4-Hydroxy-6-aza-spiro[2.5]oct-6-ylmethyl)-7-methyl-6-oxo-hexahydro-pyrazino[2,1-b][1,3]oxazine-8-carboxylic acid (3,4-dichloro-phenyl)-amide]"
9,1.9,"C[C@H]1C(=O)N2[C@@H](CCN3CCC4(CC4)[C@H](O)C3)COC[C@H]2CN1C(=O)Nc1ccc(Cl)c(Cl)c1 [Example 31, (4S,7S,9aR)-4-[2-((S)-4-Hydroxy-6-aza-spiro[2.5]oct-6-yl)-ethyl]-7-methyl-6-oxo-hexahydro-pyrazino[2,1-c][1,4]oxazine-8-carboxylic acid (3,4-dichloro-phenyl)-amide]"
10,2.1,"C[C@H]1C(=O)N2[C@@H](CCN3CCC4(CC4)[C@H](O)C3)COC[C@H]2CN1C(=O)Nc1ccc(C(F)(F)F)c(Cl)c1 [Example 32, (4S,7S,9aR)-4-[2-((S)-4-Hydroxy-6-aza-spiro[2.5]oct-6-yl)-ethyl]-7-methyl-6-oxo-hexahydro-pyrazino[2,1-c][1,4]oxazine-8-carboxylic acid (3-chloro-4-trifluoromethyl-phenyl)-amide]"
11,2.7,"C[C@H]1C(=O)N2[C@@H](CCN3CCC4(CC4)[C@H](O)C3)CC[C@H]2CN1C(=O)Nc1ccc(Cl)c(Cl)c1 [Example 33, (3S,6R,8aS)-6-[2-((S)-4-Hydroxy-6-aza-spiro[2.5]oct-6-yl)-ethyl]-3-methyl-4-oxo-hexahydro-pyrrolo[1,2-a]pyrazine-2-carboxylic acid (3,4-dichloro-phenyl)-amide]"
12,5.7,"C[C@H]1C(=O)N2[C@@H](CCC(=O)N3CCC4(CC4)[C@H](O)C3)CO[C@@H]2CN1C(=O)Nc1ccc(Cl)c(Cl)c1 [Example 35, (3S,6S,8aR)-3-[3-((S)-4-Hydroxy-6-aza-spiro[2.5]oct-6-yl)-3-oxo-propyl]-6-methyl-5-oxo-hexahydro-oxazolo[3,2-a]pyrazine-7-carboxylic acid (3,4-dichloro-phenyl)-amide]"
13,9.3,"C[C@H]1C(=O)N2[C@@H](CCC(=O)N3CCC4(CC4)[C@H](O)C3)CO[C@H]2CN1C(=O)Nc1ccc(Cl)c(Cl)c1 [Example 36, (3S,6S,8aS)-3-[3-((S)-4-Hydroxy-6-aza-spiro[2.5]oct-6-yl)-3-oxo-propyl]-6-methyl-5-oxo-hexahydro-oxazolo[3,2-a]pyrazine-7-carboxylic acid (3,4-dichloro-phenyl)-amide]"
14,360,"C[C@H]1C(=O)N2[C@@H](CCC(=O)N3CCC4(CC4)[C@H](O)C3)COC2(C)CN1C(=O)Nc1ccc(C(F)(F)F)c(Cl)c1 (stereo partly drawn) [Example 37, (3S,6S)-3-[3-((S)-4-Hydroxy-6-aza-spiro[2.5]oct-6-yl)-3-oxo-propyl]-6,8a-dimethyl-5-oxo-hexahydro-oxazolo[3,2-a]pyrazine-7-carboxylic acid (3-chloro-4-trifluoromethyl-phenyl)-amide]"
15,135,"C[C@H]1C(=O)N2[C@H](CCN3CCC4(CC4)[C@H](O)C3)CCC[C@@H]2CN1C(=O)Nc1ccc(Cl)c(Cl)c1 [Example 39, (3S,6S,9aR)-6-[2-((S)-4-Hydroxy-6-aza-spiro[2.5]oct-6-yl)-ethyl]-3-methyl-4-oxo-octahydro-pyrido[1,2-a]pyrazine-2-carboxylic acid (3,4-dichloro-phenyl)-amide]"
16,340,"C[C@H]1C(=O)N2[C@H](CCN3CCC4(CC4)[C@H](O)C3)COC[C@@H]2CN1C(=O)Nc1ccc(Cl)c(Cl)c1 [Example 40, (4R,7S,9aS)-4-[2-((S)-4-Hydroxy-6-aza-spiro[2.5]oct-6-yl)-ethyl]-7-methyl-6-oxo-hexahydro-pyrazino[2,1-c][1,4]oxazine-8-carboxylic acid (3,4-dichloro-phenyl)-amide]"
17,3.3,"C[C@H]1C(=O)N2[C@@H](CCCN3CCC4(CC4)[C@H](O)C3)CC[C@H]2CN1C(=O)Nc1ccc(Cl)c(Cl)c1 [Example 41, (3S,6S,8aS)-6-[3-((S)-4-Hydroxy-6-aza-spiro[2.5]oct-6-yl)-propyl]-3-methyl-4-oxo-hexahydro-pyrrolo[1,2-a]pyrazine-2-carboxylic acid (3,4-dichloro-phenyl)-amide]"
18,40.4,"C[C@H]1C(=O)N2[C@@H](CCC(=O)N3CCC4(CC4)[C@H](O)C3)CC[C@H]2CN1C(=O)Nc1ccc(Cl)c(Cl)c1 [Example 42, (3S,6R,8aS)-6-[3-((S)-4-Hydroxy-6-aza-spiro[2.5]oct-6-yl)-3-oxo-propyl]-3-methyl-4-oxo-hexahydro-pyrrolo[1,2-a]pyrazine-2-carboxylic acid (3,4-dichloro-phenyl)-amide]"
19,20.5,"C[C@H]1C(=O)N2[C@@H](CCC(=O)N3CCC4(CC4)[C@H](O)C3)CC[C@H]2CN1C(=O)Nc1ccc(C(F)(F)F)c(Cl)c1 [Example 43, (3S,6R,8aS)-6-[3-((S)-4-Hydroxy-6-aza-spiro[2.5]oct-6-yl)-3-oxo-propyl]-3-methyl-4-oxo-hexahydro-pyrrolo[1,2-a]pyrazine-2-carboxylic acid (3-chloro-4-trifluoromethyl-phenyl)-amide]"
20,473,"C[C@H]1C(=O)N2[C@@H](CCCN3CC(F)(F)C(F)(F)C3)CC[C@H]2CN1C(=O)Nc1ccc(Cl)c(Cl)c1 [Example 44, (3S,6S,8aS)-3-Methyl-4-oxo-6-[3-(3,3,4,4-tetrafluoro-pyrrolidin-1-yl)-propyl]-hexahydro-pyrrolo[1,2-a]pyrazine-2-carboxylic acid (3,4-dichloro-phenyl)-amide]"
